The values below are quoted from earlier work in patent US20080138412A1, “Sustained release alfuzosin hydrochl formulation and method for their production” (priority 2006, published 2008).

Structures can show the parent of a compound that is named as a salt.

For `COc1cc2nc(N(C)CCCNC(=O)C3CCCO3)nc(N)c2cc1OC` (stereo not shown) [Alfuzosin hydrochloride], the half-life result is “about 9 hours”.
